From publication PMC5572662 (ChemMedChem, 2017)
Entries after “also recorded” stand apart in the source; their conditions may differ. Square brackets hold non-standard residues; d marks the D form. Peptide text beside a SMILES is read from it. * marks the point of attachment. NH(4-amidinobenzyl) = N=C(N)c1ccc(CN*)cc1; Tle = CC(C)(C)[C@H](N)C(=O)O; PhAc = O=C(Cc1ccccc1)*

Key:
[1] = target: recombinant soluble human furin (Homo sapiens, UniProt P09958); experiment: Enzyme kinetic measurements with recombinant soluble human furin; format: biochemical; settings: for Ki: Furin Ki, as given in the text in nM; for fold improved Ki (inhibition constant) versus parent analogue: 20 versus 18 (P3 Val to Tle), 21 and 22 versus the P2 Lys analogues
Chain of recombinant soluble human furin (P09958 108-715 limits assumed): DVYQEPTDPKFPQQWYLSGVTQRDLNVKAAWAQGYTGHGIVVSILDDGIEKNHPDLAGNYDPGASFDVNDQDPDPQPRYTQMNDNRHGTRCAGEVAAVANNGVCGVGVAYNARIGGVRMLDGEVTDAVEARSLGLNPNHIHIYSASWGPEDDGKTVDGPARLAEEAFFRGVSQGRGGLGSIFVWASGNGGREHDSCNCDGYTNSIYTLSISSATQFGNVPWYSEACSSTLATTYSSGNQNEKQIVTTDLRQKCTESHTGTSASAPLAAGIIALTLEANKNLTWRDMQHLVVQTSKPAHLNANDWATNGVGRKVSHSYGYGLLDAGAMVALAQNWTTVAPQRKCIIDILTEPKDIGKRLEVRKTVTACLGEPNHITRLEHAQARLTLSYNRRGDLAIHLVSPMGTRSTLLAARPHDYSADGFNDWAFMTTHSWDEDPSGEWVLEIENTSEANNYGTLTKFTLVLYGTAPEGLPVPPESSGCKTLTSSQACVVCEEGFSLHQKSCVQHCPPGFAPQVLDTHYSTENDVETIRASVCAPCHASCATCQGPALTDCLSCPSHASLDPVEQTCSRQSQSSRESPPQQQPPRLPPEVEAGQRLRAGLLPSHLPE

[2] = test system: chikungunya virus (CHIKV); experiment: Chikungunya virus replication in BHK-21 cells, titers by plaque assay; format: cell-based; settings: 25 μM inhibitor, MOI 0.1, plaque assay 24 h post-infection
E3-E2 (p62) cleavage = experiment: Western blot of E3-E2; format: cell-based, Semliki Forest virus; settings: 25 μM inhibitor, BHK-21 cells, SFV MOI 10, 8 h post-infection
[3] = test system: Semliki Forest virus (SFV); experiment: Semliki Forest virus replication in BHK-21 cells, titers by plaque assay; format: cell-based; settings: for reduction of SFV virus titer: 25 μM inhibitor, MOI 0.01, plaque assay 24 h post-infection
anthrax toxin = settings: living rodents ref 8; cited from earlier work
[4] = test system: Pseudomonas aeruginosa exotoxin A; settings: living rodents ref 8; cited from earlier work

| Compound | Ki [1] | fold improved Ki (inhibition constant) versus parent analogue [1] | further results |
| --- | --- | --- | --- |
| CC(C)[C@H](NC(=O)Cc1ccc(CN)cc1)C(=O)N[C@@H](CCCNC(=N)N)C(=O)NCc1ccc(C(=N)N)cc1 [Compound 24, 4-AMe-Phac-Val-Arg-4-Amba] | 37.8 nM | – | – |
| CC(C)[C@H](NC(=O)[C@H](CCCNC(=N)N)NC(=O)[C@H](CCCNC(=N)N)NC(=O)[C@H](N)CCCNC(=N)N)C(=O)N[C@@H](CCCNC(=N)N)C(=O)NCc1ccc(C(=N)N)cc1 [Compound 9, H-DArg-Arg-Arg-Val-Arg-4-Amba] (H-[dR]RRVR-{NH(4-amidinobenzyl)}) | – | – | reduction of CHIKV virus titer [2]: strongly reduced titers; inhibition of E3-E2 (p62) cleavage (E3-E2 (p62) cleavage): Inhibition of E3-E2 (p62) cleavage; reduction of SFV virus titer [3]: less than one order of magnitude; also recorded: strongly reduced titers; concentration dependence of inhibition of SFV replication ([3]; MOI 0.01, 24 h post-infection (Figure 4)): concentration-dependent inhibition of SFV replication |
| CC(C)[C@H](NC(=O)Cc1cccc(CN)c1)C(=O)N[C@@H](CCCNC(=N)N)C(=O)NCc1ccc(C(=N)N)cc1 [Compound 23, 3-AMe-Phac-Val-Arg-4-Amba] | 48.2 nM | – | – |
| CC(=O)N[C@@H](CC(C)C)C(=O)N[C@@H](CC(C)C)C(=O)N[C@@H](CC(C)C)C(=O)N[C@@H](CC(C)C)C(=O)N[C@@H](CCCNC(=N)N)C(=O)N[C@H](C(=O)N[C@@H](CCCCN)C(=O)NCc1ccc(C(=N)N)cc1)C(C)(C)C [Compound 20, Ac-Leu-Leu-Leu-Leu-Arg-Tle-Lys-4-Amba] (Ac-LLLLR[Tle]K-{NH(4-amidinobenzyl)}) | – | 2.5 fold | – |
| CC(=O)N[C@@H](CC(C)C)C(=O)N[C@@H](CC(C)C)C(=O)N[C@@H](CC(C)C)C(=O)N[C@@H](CC(C)C)C(=O)N[C@@H](CCCNC(=N)N)C(=O)N[C@H](C(=O)N[C@@H](CCCNC(=N)N)C(=O)NCc1ccc(C(=N)N)cc1)C(C)(C)C [Compound 22, Ac-Leu-Leu-Leu-Leu-Arg-Tle-Arg-4-Amba] (Ac-LLLLR[Tle]R-{NH(4-amidinobenzyl)}) | – | ~ 2 fold | – |
| CC(=O)N[C@@H](CC(C)C)C(=O)N[C@@H](CC(C)C)C(=O)N[C@@H](CC(C)C)C(=O)N[C@@H](CC(C)C)C(=O)N[C@@H](CCCNC(=N)N)C(=O)N[C@H](C(=O)N[C@@H](CCCNC(=N)N)C(=O)NCc1ccc(C(=N)N)cc1)C(C)C [Compound 21, Ac-Leu-Leu-Leu-Leu-Arg-Val-Arg-4-Amba] (Ac-LLLLRVR-{NH(4-amidinobenzyl)}) | – | ~ 2 fold | – |
| hexa-D-arginine | – | – | protective effect against anthrax toxin (anthrax toxin): protective effect; protective effect against Pseudomonas aeruginosa exotoxin A [4]: protective effect |
| CC(=O)N[C@H](CC(C)C)C(=O)N[C@@H](CC(C)C)C(=O)N[C@@H](CC(C)C)C(=O)N[C@@H](CC(C)C)C(=O)N[C@@H](CCCNC(=N)N)C(=O)N[C@H](C(=O)N[C@@H](CCCCN)C(=O)NCc1ccc(C(=N)N)cc1)C(C)C [Compound 19, Ac-DLeu-Leu-Leu-Leu-Arg-Val-Lys-4-Amba, reference compound] (Ac-[dL]LLLRVK-{NH(4-amidinobenzyl)}) | ~0.5 nM | – | – |
| CC(=O)N[C@@H](CC(C)C)C(=O)N[C@@H](CC(C)C)C(=O)N[C@@H](CC(C)C)C(=O)N[C@@H](CC(C)C)C(=O)N[C@@H](CCCN=C(N)N)C(=O)N[C@H](C(=O)N[C@@H](CCCCN)C(=O)NCc1ccc(C(=N)N)cc1)C(C)C [Compound 18, Ac-Leu-Leu-Leu-Leu-Arg-Val-Lys-4-Amba, reference compound] (Ac-LLLLRVK-{NH(4-amidinobenzyl)}) | ~0.5 nM | – | – |
| CC(C)[C@H](NC(=O)[C@H](CCCNC(=N)N)NC(=O)[C@H](CCCNC(=N)N)NC(=O)[C@H](CCCNC(=N)N)NC(=O)Cc1ccccc1)C(=O)N[C@@H](CCCNC(=N)N)C(=O)NCc1ccc(C(=N)N)cc1 [Compound 5, Phac-Arg-Arg-Arg-Val-Arg-4-Amba] (PhAc-RRRVR-{NH(4-amidinobenzyl)}) | – | – | reduction of SFV virus titer [3]: less than one order of magnitude |
